US6339046B1, “Pyrazde herbicides” (Syngenta Investment Corporation, priority 1996, dated 2002)

Assays:
Sinapis = test: Post-emergence herbicidal action (Example B2); format: in vivo; parameters: key: 1=complete damage; 9=no action; Score figures of 1 to 4 (in particular 1 to 3) denote a good to very good herbicidal action; settings: 500 g of a.i./ha, sprayed in the 4- to 6-leaf stage, evaluated after approximately 18 days, nine-step scale (1=complete damage, 9=no action)
Method: (§1) Post-emergence Herbicidal Action
(§2) In the greenhouse, monocotyledoneous and dicotyledoneous test plants are grown in standard soil in plastic pots and, in the 4- to 6-leaf stage, sprayed with an aqueous suspension or emulsion of the test substances of the formula I, prepared from a 25% emulsion concentrate (Example F1, c)), which corresponds to a dosage of 500 g of a.i./ha (500 l of water/ha). The test plants are subsequently grown on in the greenhouse under optimal conditions. After a test period of approximately 18 days, the experiment is evaluated on a nine-step scale (1=complete damage, 9=no action). Score figures of 1 to 4 (in particular 1 to 3) denote a good to very good herbicidal action.
(§3) Test plants: Setaria, Sinapis, Solanum, Stellaria, Ipomoea.

Ipomoea [1] = test: Post-emergence herbicidal action (Example B2); format: in vivo; parameters: key: 1=complete damage; 9=no action; Score figures of 1 to 4 (in particular 1 to 3) denote a good to very good herbicidal action; settings: 500 g of a.i./ha, sprayed in the 4- to 6-leaf stage, evaluated after approximately 18 days, nine-step scale (1=complete damage, 9=no action)
Method: as §1, §2, §3

Solanum [2] = test: Post-emergence herbicidal action (Example B2); format: in vivo; parameters: key: 1=complete damage; 9=no action; Score figures of 1 to 4 (in particular 1 to 3) denote a good to very good herbicidal action; settings: 500 g of a.i./ha, sprayed in the 4- to 6-leaf stage, evaluated after approximately 18 days, nine-step scale (1=complete damage, 9=no action)
Method: as §1, §2, §3

Stellaria [3] = test: Post-emergence herbicidal action (Example B2); format: in vivo; parameters: key: 1=complete damage; 9=no action; Score figures of 1 to 4 (in particular 1 to 3) denote a good to very good herbicidal action; settings: 500 g of a.i./ha, sprayed in the 4- to 6-leaf stage, evaluated after approximately 18 days, nine-step scale (1=complete damage, 9=no action)
Method: as §1, §2, §3

Setaria [4] = test: Post-emergence herbicidal action (Example B2); format: in vivo; parameters: key: nine-step scale: 1 = complete damage, 9 = no action; settings: 500 g of a.i./ha, sprayed in the 4- to 6-leaf stage, evaluated after approximately 18 days, nine-step scale (1=complete damage, 9=no action)
Method: as §1, §2, §3

Solanum [5] = test: Pre-emergence herbicidal action (Example B1); format: in vivo; parameters: key: 1=complete damage; 9=no action; Score figures of 1 to 4 (in particular 1 to 3) denote a good to very good herbicidal action; settings: 500 g of a.i./ha, sprayed immediately after sowing, evaluated after 3 weeks, nine-step scale (1=complete damage, 9=no action)
Method: (§4) Herbicidal Action Before Emergence of the Plants (Pre-emergence Action)
as §2, with “Monocotyledoneous” for “In the greenhouse, monocotyledoneous”, “pots. Immediately after sowing, the test substances are sprayed on” for “pots and,”, “form of” for “4- to 6-leaf stage, sprayed with”, “emulsion,” for “emulsion of the test substances of the formula I,”, “grown” for “grown on”, “3 weeks,” for “approximately 18 days,”
(§5) Test plants: Avena, Setaria, Solanum, Stellaria, Ipomoea.

Setaria [6] = test: Pre-emergence herbicidal action (Example B1); format: in vivo; parameters: key: 1=complete damage; 9=no action; Score figures of 1 to 4 (in particular 1 to 3) denote a good to very good herbicidal action; settings: 500 g of a.i./ha, sprayed immediately after sowing, evaluated after 3 weeks, nine-step scale (1=complete damage, 9=no action)
Method: as §4
as §2, with “Monocotyledoneous” for “In the greenhouse, monocotyledoneous”, “pots. Immediately after sowing, the test substances are sprayed on” for “pots and,”, “form of” for “4- to 6-leaf stage, sprayed with”, “emulsion,” for “emulsion of the test substances of the formula I,”, “grown” for “grown on”, “3 weeks,” for “approximately 18 days,”
as §5

Stellaria [7] = test: Pre-emergence herbicidal action (Example B1); format: in vivo; parameters: key: 1=complete damage; 9=no action; Score figures of 1 to 4 (in particular 1 to 3) denote a good to very good herbicidal action; settings: 500 g of a.i./ha, sprayed immediately after sowing, evaluated after 3 weeks, nine-step scale (1=complete damage, 9=no action)
Method: as §4
as §2, with “Monocotyledoneous” for “In the greenhouse, monocotyledoneous”, “pots. Immediately after sowing, the test substances are sprayed on” for “pots and,”, “form of” for “4- to 6-leaf stage, sprayed with”, “emulsion,” for “emulsion of the test substances of the formula I,”, “grown” for “grown on”, “3 weeks,” for “approximately 18 days,”
as §5

Avena = test: Pre-emergence herbicidal action (Example B1); format: in vivo; settings: 500 g of a.i./ha, sprayed immediately after sowing, evaluated after 3 weeks, nine-step scale (1=complete damage, 9=no action)
Method: as §4
as §2, with “Monocotyledoneous” for “In the greenhouse, monocotyledoneous”, “pots. Immediately after sowing, the test substances are sprayed on” for “pots and,”, “form of” for “4- to 6-leaf stage, sprayed with”, “emulsion,” for “emulsion of the test substances of the formula I,”, “grown” for “grown on”, “3 weeks,” for “approximately 18 days,”
as §5

Ipomoea [8] = test: Pre-emergence herbicidal action (Example B1); format: in vivo; settings: 500 g of a.i./ha, sprayed immediately after sowing, evaluated after 3 weeks, nine-step scale (1=complete damage, 9=no action)
Method: as §4
as §2, with “Monocotyledoneous” for “In the greenhouse, monocotyledoneous”, “pots. Immediately after sowing, the test substances are sprayed on” for “pots and,”, “form of” for “4- to 6-leaf stage, sprayed with”, “emulsion,” for “emulsion of the test substances of the formula I,”, “grown” for “grown on”, “3 weeks,” for “approximately 18 days,”
as §5

Row | melting point | Structure (SMILES) | Post-emergence action, score, test plant Sinapis (Sinapis) | Post-emergence action, score, test plant Ipomoea (Ipomoea [1]) | Post-emergence action, score, test plant Solanum (Solanum [2]) | Post-emergence action, score, test plant Stellaria (Stellaria [3]) | Post-emergence action, score, test plant Setaria (Setaria [4]) | Pre-emergence action, score, test plant Solanum (Solanum [5]) | Pre-emergence action, score, test plant Setaria (Setaria [6]) | Pre-emergence action, score, test plant Stellaria (Stellaria [7]) | Pre-emergence action, score, test plant Avena (Avena) | Pre-emergence action, score, test plant Ipomoea (Ipomoea [8])
1 |  | Cc1c(-c2ccc(Cl)cc2F)nn(C)c1C(N)=S [I5, 001] | 7 | 1 | 1 | 7 | 6 |  |  |  |  | 
2 |  | Cc1c(-c2cc(C(=O)OC(C)C)c(Cl)cc2F)nn(C)c1C#N [I1.140] |  |  |  |  |  | 2 | 1 | 1 | 3 | 4
3 |  | COc1cc(-c2nn(C)c(C#N)c2C)c(F)cc1Cl [I1, 006] | 3 | 1 | 1 | 3 | 2 |  |  |  |  | 
4 |  | COC(=O)c1cc(-c2nn(C)c(C#N)c2C)c(F)cc1Cl [I1, 134] | 3 | 1 | 1 | 1 | 5 |  |  |  |  | 
5 | 256 to 257 °C | C#CCOc1cc(-c2nn(C)c(C#N)c2C)c(Cl)cc1Cl [Comp. No. I3.027, 3-(2,4-dichloro-5-propargyloxyphenyl)-4-methyl-5-cyano-1-methyl-[1H]-pyrazole] |  |  |  |  |  | 1 | 1 | 2 | 6 | 6
6 | 152 to 153 °C | Cc1c(-c2ccc(Cl)cc2F)nn(C)c1C#N [I1.001] |  |  |  |  |  | 1 | 1 | 6 | 4 | 3
7 |  | Cc1c(-c2cc(C(=O)OC(C)(C)C(=O)O)c(Cl)cc2F)nn(C)c1C#N [I1, 151] | 1 | 1 |  | 1 | 3 |  |  |  |  | 
8 |  | COc1cc(-c2nn(C)c(C#N)c2C)c(F)cc1Cl [I1.006] |  |  |  |  |  | 1 | 1 | 1 | 4 | 4
9 |  | Cc1c(-c2cc(CC(Cl)C(=O)OCc3ccccc3)c(Cl)cc2F)nn(C)c1C#N (centres unmarked) [I1, 122] | 1 | 1 | 1 | 1 | 4 |  |  |  |  | 
10 |  | Cc1c(-c2ccc(Cl)cc2F)nn(C)c1C#N [I1, 001] | 4 | 1 | 2 | 5 | 3 |  |  |  |  | 
11 | 145 to 146 °C | C#CCOc1cc(-c2nn(C)c(C#N)c2C)c(F)cc1Cl [I1.027] |  |  |  |  |  | 1 | 2 | 1 | 3 | 4
12 | 263 to 265 °C | Cc1c(-c2cc(O)c(Cl)cc2Cl)nn(C)c1C#N [Comp. No. I36.103, 3-(2,4-dichloro-5-hydroxyphenyl)-4-methyl-5-cyano-1-methyl-[1H]-pyrazole] |  |  |  |  |  |  |  |  |  | 
13 |  | Cc1c(-c2cc(C(=O)O)c(Cl)cc2F)nn(C)c1C#N [I1, 130] | 1 | 1 | 1 | 1 | 3 |  |  |  |  | 
14 |  | C#CCOc1cc(-c2nn(C)c(C#N)c2C)c(Cl)cc1Cl [I3, 027] | 3 | 3 | 1 | 3 | 6 |  |  |  |  | 
15 |  | C#CCOc1cc(-c2nn(C)c(C#N)c2C)c(F)cc1Cl [I1, 027] | 3 | 1 | 1 | 1 | 3 |  |  |  |  | 
16 |  | Cc1c(-c2cc(C(=O)OC(C)C)c(Cl)cc2F)nn(C)c1C#N [I1, 140] | 4 | 1 | 1 | 1 | 2 |  |  |  |  | 
17 |  | Cc1c(-c2ccc(Cl)cc2F)nn(C)c1C(N)=S [I5.001] |  |  |  |  |  | 1 | 1 | 7 | 6 | 6
